The text below walks through data of publication PMC9718561, “Multi-functional chitosan copolymer modified nanocrystals as oral andrographolide delivery systems for enhanced bioavailability and anti-inflammatory efficacy” (Drug Delivery, 2022).

The structures appear in SMILES notation. ≈ marks a conversion by molar mass, not a printed value. Where two headings read alike, the source gives them in different places.

Data set [1] in a line: Real-time distribution in the gastrointestinal tract (fluorescent labelling, live imaging). The format is in vivo. The note with it: SD rats, oral. How it is done: We performed real-time distribution study to explore whether the functional materials have played their full enhancing ability in oral absorption. We used acridine orange to label SDS, fluorescein isothiocyanate isomer I to label TPGS, CS, SDS-TPGS and SDS-CS-TPGS, and rhodamine B to label ADR, respectively. […] The SDS-CS-TPGS + ADR group was administered with SDS-CS-TPGS and ADR at the same time. The animals were killed by cervical dislocation at the pre-set time points of 0.5 h, 1 h, 2 h and 3 h. Then the gastrointestinal tract was removed in time and put it into a small animal live imaging system (Lumina XR, PerkinElmer, America) for photographic observation.
The distribution of gastrointestinal segments in each group of animals at each time period was observed by in live imaging system (Figure 5A). […] In order to further understand the distribution of various materials and ADR in the gastrointestinal tract, we divided the gastrointestinal tract of SD rats into ten parts such as stomach, small intestine which divided into 8 sections on average and colon, as shown in Figure 5(B). […] For example, when SDS-CS-TPGS were taken orally with ADR, the time of 50% SDS-CS-TPGS passing part 4, part 5 and part 6 of small intestine was 0.67 ± 0.01 h, 0.98 ± 0.06 h and 1.04 ± 0.13 h, respectively, which were not much different from that of ADR, as the passing time of ADR in part 4, part 5 and part 6 was 0.65 ± 0.04 h, 1.02 ± 0.01 h and 1.03 ± 0.01 h, respectively. However, these times of other materials and ADR were different, indicating the materials and ADR could not reach the same site of gastrointestinal tract at the same time, which may limit the absorption enhancing ability of functional materials. Combining the results described above, we can conclude that materials in physical mixture may separate in intestinal, and synthesized copolymer could reduce the separation and has better ability to […] the absorption site of drug at the same time.
The passing times of 50% ADR and polymer materials passed through the fourth (T4(50)), fifth (T5(50)) and sixth (T6(50)) segments of small intestine of SD rats were shown in Table S2, and we can find the distribution of ADR and copolymer (S-C-T) were similar.

Data set [2] deals with ear swelling ICR mice model. Put plainly: Arachidonic acid ear swelling model, ear swelling rate. The class given is in vivo. Particulars: indomethacin 10 mg/kg po; ADR injection 10 mg/kg iv; ADR 100 mg/kg po; S-C-TANs L 25, M 50, H 100 mg/kg po. How it is done:
To explore whether the enhancing on bioavailability could result in enhanced therapeutic effect, we studied the anti-inflammatory efficacy of nanocrystal. The ear swelling ICR mice model was established by using arachidonic acid and the anti-inflammatory efficacy was evaluated by employing ear swelling rate of ICR mice serum levels of TNF-α, IL-6 and IL-1β, as pharmacodynamic index. In this study, fifty-six ICR mice were randomly divided into 8 groups, named control group (normal animal), model group (without drug), indomethacin group (positive drug, 10 mg/kg, po), ADR injection group (10 mg/kg, iv), ADR group (100 mg/kg, po), L-S-C-TANs group (low dose of S-C-TANs, 25 mg/kg, po), M-S-C-TANs group (middle dose of S-C-TANs, 50 mg/kg, po) and H-S-C-TANs group (high dose of S-C-TANs, 100 mg/kg, po). […] Cellular inflammatory factors, like TNF-α, IL-1β, and IL-6, were measured by Elisa Kit.
To explore whether the enhancing on bioavailability could result in enhanced therapeutic effect, we studied the anti-inflammatory efficacy of nanocrystal. The ear swelling ICR mice model was established by using arachidonic acid and the anti-inflammatory efficacy was evaluated by employing ear swelling rate of ICR mice serum levels of TNF-α, IL-6 and IL-1β, as pharmacodynamic index. […]

Data set [3] is described as follows: Oil-water partition coefficient (Log P). The class given is physicochemical. The text has this: Combining the saturated solubility and log P of each group (shown in Table S1, it could be seen that the greater the saturated solubility is, the greater the log P value is.
Data set [4] is described as follows: Pharmacokinetic study after gavage. The format is in vivo. Particulars: SD rats, 50 mg/kg by gavage. How it is done:
We explored oral absorption enhancing ability of andrographolide nanocrystals by operating pharmacokinetic studies on SD rat. In brief, twenty-five SD rats were randomly divided into 5 groups, and administrated ADR-water (dispersed ADR in water), ANs, SANs, TANs and S-C-TANs at 50 mg/kg by gavage (Chen et al., [2014]). After administrated for 0.083, 0.25, 0.5, 0.75, 1, 2, 4, 6, 8, 12 and 24 h, about 0.3 mL blood sample was collected by retro-orbital puncture. The plasma was centrifuged at 4,000 r/min for 10 min at 4 °C and stored at −20 °C. The andrographolide concentrations in plasma samples were detected after treatments as following: 50 μL plasma samples, 25 μL luteolin solution (internal standard 10.11 μg/mL) and 200 μL methanol solution were mixed by vortexing for 5 min. The mixed solution was subsequently centrifuged at 12,000 rpm for 10 min and the supernatant was collected and dried at room temperature under a stream of nitrogen. The residue was reconstituted with 50 μL methanol and mixed by vortexing for 3 min. after centrifuging at 12,000 rpm for 10 min, the supernatant was injected into the HPLC system for analysis. The ADR concentration in plasma samples was detected by HPLC following the conditions shown in supplementary materials, and pharmacokinetic parameters were calculated using the DAS 3.3.0 pharmacokinetics program (developed by the Clinical Trial Center of Shanghai University of Traditional Chinese Medicine, Shanghai, China).
Andrographolide was analyzed at 225 nm using HPLC linked to a Ultimate^Ⓡ XB-C18 (4.6 mm ×250 mm, 5μm) column. The mobile phase, consisting of methanol and 0.2% phosphoric acid (46:54, v/v), was pumped at 1 mL/min. The column temperature was 35℃.

The nature of data set [5]: Saturated solubility study (shaking 24 h, HPLC). The format is physicochemical. The note with it: read-out: Saturation solubility. How it is done: Briefly, excess formulation powders were added into 5 mL buffers, and shaked at 37 °C for 24 h, then the undissolved drug was removed by centrifuging at 13, 000 rpm for 10 min and filtering with 0.22 μm microporous membrane. The drug concentration in the filtrate was determined by HPLC. The freshly prepared ANs, SANs, TANs and S-C-TANs were directly shaking for 24 h at 37 °C, and treated as that of andrographolide, thereafter. ADR was analyzed at 225 nm and at 35 °C using HPLC linked to Ultimate^Ⓡ XB-C18 (4.6 mm × 250 mm, 5 μm) column. The mobile phase which consisted of methanol and water (60:40, v/v) was pumped at 1 mL/min. The HPLC analysis met the methodological requirements by validating.

For a further data set, the system named is MDCK cells. Put plainly: Cytotoxicity of nanocrystals. The note with it: drug concentration above 100 μg/mL. The format is cell-based.
Where [6] appears, read: SDS-CS-TPGS and ADR administered at the same time.

Regarding `CCCCCCCCCCCCOS(=O)(=O)[O-].[Na+]` [SDS, Sodium dodecyl sulfate], in data set [1] (given alone), the “T4(50), time of 50% passing the fourth segment of small intestine” value stood at 0.89 ± 0.03 h; the “T5(50), time of 50% passing the fifth segment of small intestine” value turned out to be 1.52 ± 0.12 h; the “T6(50), time of 50% passing the sixth segment of small intestine” value came to 2.40 ± 0.02 h.
In the case of `COc1ccc2c(c1)c(CC(=O)O)c(C)n2C(=O)c1ccc(Cl)cc1` [indomethacin, Indomethacin], the “anti-ear swelling efficacy, order of all groups” value in data set [2] is recorded as “ADR injection group > H-S-C-TANs group > positive drug group > M-S-C-TANs group > ADR group ≈ L-S-C-TANs group”.
The term logP denotes the decadic logarithm of the partition coefficient of the neutral form, usually between octanol and water. Lower therefore signals lower lipophilicity. A word on the bioavailability: it is the share of a dose that reaches the circulation, judged against a reference dose that is usually intravenous. The AUC(0-inf) is total exposure, with the tail of the curve extrapolated. Low values mean low exposure, high ones high exposure. The term AUC(0-t) denotes the area under the concentration-time curve up to a stated or last time point. A low value points to low exposure. One may read the Cmax as the highest concentration seen after dosing. By Tmax is commonly meant the time from dosing to the highest level. The half-life is the time in which the quantity being followed falls by half. Low readings indicate rapid decline, high ones slow decline. Take `C=C1CC[C@@H]2[C@](C)(CO)[C@H](O)CC[C@@]2(C)[C@@H]1C/C=C1/C(=O)OC[C@H]1O` [ADR, andrographolide]: the logP came to 1.78 ± 0.02 in data set [3] (Water, 25℃); 1.76 ± 0.01 in data set [3] (Water, 37℃); 1.85 ± 0.02 in data set [3] (pH 1.2, pH1.2, 25℃); 1.84 ± 0.02 in data set [3] (pH 1.2, pH1.2, 37℃); 1.85 ± 0.02 in data set [3] (pH 4, pH4.0, 25℃); 1.87 ± 0.02 in data set [3] (pH 4, pH4.0, 37℃). The logP in data set [3] (pH 6.8, pH6.8, 25℃) worked out at 1.88 ± 0.02; in data set [3] (pH 6.8, pH6.8, 37℃), 1.94 ± 0.02. For the same compound, the “Fr (relative bioavailability)” value in data set [4] (compared with ADR-Water) came to 100%. For the same compound, the bioavailability in data set [4] (rat, plasma, po, read-out: Fa (absolute bioavailability)) was 1.83%. In data set [4] (rat, po, plasma), the AUC(0-inf) was 1290 ng·h/mL. Besides, the AUC(0-t) in data set [4] (rat, po, plasma) was determined as 1290 ± 218 ng·h/mL. Also, the Cmax in data set [4] (rat, po, plasma) came to 229 ± 82 ng/mL. Besides, the Tmax in data set [4] (rat, po, plasma) came to 0.717 ± 0.415 h. In data set [4] (rat, po, plasma), this compound had a half-life of 2.81 ± 0.232 h. In addition, the CL/F in data set [4] (rat, po, plasma, read-out: CLz/F (converted)) was 661 mL/min/kg. In data set [4] (rat, po, plasma, read-out: MRT0-t), the MRT last worked out at 5.66 ± 1.26 h. The MRT inf in data set [4] (rat, po, plasma, read-out: MRT0-∞) was 5.75 ± 1.26 h. In addition, the Vd/F in data set [4] (rat, po, plasma, read-out: Vz/F) was found to be 161 ± 31.4 L/kg. Moreover, the solubility at 24 h in data set [5] (citrate - disodium hydrogen phosphate buffer, 37 °C, pH 4, aqueous buffer, thermodynamic from solid, pH4.0 (C-DHPB)) was 37.68 ± 0.24 µg/mL (≈ 108 µM); in data set [5] (hydrochloric acid aqueous solution, 37 °C, pH 1.2, simulated gastric fluid, thermodynamic from solid, pH1.2 (HCl)), 38.2 ± 0.95 µg/mL (≈ 109 µM); in data set [5] (phosphate buffered saline, 37 °C, pH 6.8, aqueous buffer, thermodynamic from solid, pH6.8 (PBS)) it was 32.5 ± 0.42 µg/mL (≈ 92.8 µM); in data set [5] (purified water, 37℃), 40.8 ± 0.64 µg/mL (≈ 116 µM). The “anti-ear swelling efficacy, order of all groups” value in data set [2] is listed as “ADR injection group > H-S-C-TANs group > positive drug group > M-S-C-TANs group > ADR group ≈ L-S-C-TANs group”. In addition, the cytotoxicity result with MDCK cells is recorded as “toxicity of ADR emerged”. Besides, the “T4(50), time of 50% passing the fourth segment of small intestine” value in data set [1] (setting [6]) turned out to be 0.65 ± 0.04 h; in data set [1] (given alone) it was 0.65 ± 0.02 h. Further, the “T5(50), time of 50% passing the fifth segment of small intestine” value was found to be 1.02 ± 0.01 h in data set [1] (setting [6]) and 1.16 ± 0.10 h in data set [1] (given alone). For the same compound, the “T6(50), time of 50% passing the sixth segment of small intestine” value in data set [1] (setting [6]) is 1.03 ± 0.01 h; in data set [1] (given alone), 2.08 ± 0.05 h.
